For this assay, the target named is T1, LptH (Pseudomonas aeruginosa, UniProt Q9HVV7).
T1 sequence (Q9HVV7 25-175): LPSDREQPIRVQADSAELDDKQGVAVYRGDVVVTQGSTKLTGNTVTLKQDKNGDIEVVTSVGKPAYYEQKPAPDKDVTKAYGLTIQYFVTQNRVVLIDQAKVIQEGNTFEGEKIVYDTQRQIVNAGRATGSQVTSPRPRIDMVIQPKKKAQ
Put plainly: native mass spectrometry. The assay is classed as biochemical, P. aeruginosa. To be noted: for Emax (in words): comparison within 2a derivatives.

On to `Clc1cc2c(c3ncccc13)OCN(CCc1ccccc1)C2` [1a], for which, under “pH 8, read-out: Emax, maximum achievable monomer mole fraction”, the Emax was determined as 73 ± 2%.

With `O=C(O)c1ccc(O)c2ncccc12` [2a, 5-carboxy-8-hydroxyquinoline], the “increase in the monomer mole fraction (in words)” value (100 μM compound, nMS) was “minimal increase”.

As for `COC(=O)CCCNC(=O)c1ccc(O)c2ncccc12` [2c], the “Emax (in words)” value (nMS) is given as “highest Emax values of the series”.

Consider `COCOc1ccc(C(=O)NCCCC(=O)OC)c2cccnc12` [2e], for which the “Emax (in words)” value (nMS) is “highest Emax values of the series”.

As a reminder, the Emax is the maximal effect, on the per cent scale that the assay sets.

For the origin of these results see article PMC7614387 (Chemical communications (Cambridge, England), 2021).
